Laboratory results taken from PubChem BioAssay (NCI).
Where “and” joins values, the source holds several entries; their conditions need not be identical. Equal values may be shown once.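 Cultured in 96-well plates, cells were exposed to test compound for 48 hours across five concentrations. Here, GI50 denotes the concentration required for 50% inhibition of growth. TGI: total growth inhibition.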

Key:
Assay in all cases: DTP human tumour cell line panel, 48 h
[1] = test system: A549 NSCLC
[2] = test system: HL-60(TB) leukemia
[3] = test system: SF-268 CNS
[4] = test system: K-562 leukemia
[5] = test system: TK-10 renal
[6] = test system: OVCAR-5 ovarian
[7] = test system: SNB-19 CNS
[8] = test system: RPMI-8226 leukemia
[9] = test system: SR leukemia
[10] = test system: CCRF-CEM leukemia

| Compound | TGI [1] | TGI [2] | TGI [3] [µM] | TGI [4] [µM] | TGI [5] | TGI [6] [µM] | TGI [7] [µM] | TGI [8] | TGI [9] [µM] | TGI [10] [µM] | GI50 [1] | GI50 [2] | GI50 [3] | GI50 [4] | GI50 [5] | GI50 [6] | GI50 [7] | GI50 [8] | GI50 [9] | GI50 [10] |
| --- | --- | --- | --- | --- | --- | --- | --- | --- | --- | --- | --- | --- | --- | --- | --- | --- | --- | --- | --- | --- |
| CCOC(=O)N1C2C=C(C)C(C3C(C)C(=O)N31)N(C(=O)c1ccccc1)O2 (centres undefined) | > 100 µM | > 100 µM | > 100 | > 100 | > 100 µM | > 100 | > 100 | > 100 µM | > 100 | > 100 |  |  |  |  |  |  |  |  |  |  |
| CCc1c[nH]c2ncnc(N3CC[C@@](N)(CNC(=O)c4ccc(F)cc4F)C3)c12 | > 86.9 µM | > 100 µM | > 100 | > 100 | > 83.9 µM | > 100 | > 100 | > 100 µM | 44.1 | > 96.4 | 24.5 µM | 38.7 µM | 38 µM | 48.3 µM | 22.2 µM | 80 µM | 44.8 µM | 28.6 µM | 16.4 µM | 28.3 µM |
| CCc1c2c(nc3cccc(N)c13)-c1cc3c(c(=O)n1C2)COC(=O)[C@]3(O)CC | 0.504 µM | 0.0182 µM | 78 | > 100 | 0.748 µM | 0.115 | 0.0512 | 0.56 µM |  |  | 0.00817 µM | 0.00127 µM | 0.00233 µM | 0.00244 µM |  |  | 0.00176 µM | 0.0932 µM | < 0.001 µM | < 0.001 µM |
| COc1ccc2c(C(=O)O)cc3cc(OC)c(OC)cc3c2c1 | > 100 µM | > 100 µM | > 100 | > 100 | > 100 µM | > 100 | > 100 | > 100 µM | > 100 | > 100 |  |  |  |  |  |  |  |  |  |  |
| COc1cc2cc(Oc3ccc(NC(=O)c4ccc(Cl)c(C(F)(F)F)c4)cc3)c(C)nc2cc1OC | > 100 µM | 82 µM | > 100 | > 100 | > 100 µM | > 100 | > 100 | 32.7 µM | > 100 | > 100 | 10.3 µM | 20.8 µM | 37.2 µM | 9.14 µM | 12.4 µM | 55.9 µM | 24.6 µM | 5.43 µM | 14.3 µM | 7.56 µM |
| COC(=O)C(=O)C(C(=O)C=C(C)C)C(=O)C(=O)Nc1cccc(C(C)=O)c1 (centres undefined) | > 100 µM | > 100 µM | > 100 | > 100 | > 100 µM | > 100 | > 100 | > 100 µM | > 100 | > 100 |  |  |  |  |  |  |  |  |  |  |
| CC(=O)Oc1ccccc1C(=O)C1c2cccc(O)c2C(=O)c2c(O)cccc21 | 2.86 µM | 0.727 µM | 5.54 | > 100 | 15.4 µM | 6.22 | 24.3 | 2.48 µM | 0.967 | 2.77 |  |  |  |  |  |  |  |  |  |  |
| O=c1[nH]cc(OCC(F)(F)F)c(=O)[nH]1 | > 100 µM | > 100 µM | > 100 | > 100 | > 100 µM | > 100 | > 100 | > 100 µM | > 100 | > 100 |  |  |  |  |  |  |  |  |  |  |
| CC(C)=CC(=O)CC(=O)C(=O)Nc1ccc(Cl)c(Cl)c1 | > 100 µM | > 100 µM | > 100 | > 100 | > 100 µM | > 100 | > 100 | > 100 µM | > 100 | > 100 |  |  |  |  |  |  |  |  |  |  |
| CCCCCc1c(C)[nH]c(/C=C2\N=C(c3ccc[nH]3)C=C2Oc2ccc(Cl)cc2)c1C | 0.382 µM and 0.229 µM | 1.48 µM and 1.01 µM | 3.18 | > 100 | 5.45 µM and 0.921 µM | 4.26 | 4.33 | 1.23 µM and 1.57 µM | > 100 | > 100 | 0.0753 µM and 0.0264 µM | 0.213 µM and 0.0637 µM | 0.0767 µM and 0.0338 µM | 0.0485 µM and 0.0367 µM | 0.413 µM and 0.0539 µM | 0.142 µM and 0.0383 µM | 0.268 µM and 0.173 µM | 0.0602 µM and 0.0163 µM | 0.0372 µM and < 0.01 µM | 0.0392 µM and < 0.01 µM |
| CC(C)OC(=O)c1ccc2[nH]c(O)c(C(=Nc3ccc(N(C)C(=O)CN4CCN(C)CC4)cc3)c3ccccc3)c2c1 | 2.18 µM | 1.18 µM | 2 | 2.06 | 2.52 µM | 3.22 | 2.33 | 1.79 µM | 0.721 | 3.33 | 0.389 µM | 0.357 µM | 0.387 µM | 0.0435 µM | 0.561 µM | 1.51 µM | 0.921 µM | 0.385 µM | 0.0443 µM | 0.371 µM |
| CSc1nc(-c2ccccc2)c2c(n1)-c1ccccc1CC2 | > 100 µM | > 100 µM | > 100 | > 100 | > 100 µM | > 100 | > 100 | > 100 µM | > 100 | > 100 |  |  |  |  |  |  |  |  |  |  |
| COc1ccc2c(c1)C(=O)c1c-2n(CCCN2CCOCC2)c(=O)c2ccccc12 | 8.41 µM | > 100 µM | > 43.9 | > 100 | 57.2 µM | > 100 | 30.9 | 5.59 µM | > 32.6 | > 20.7 | 1.97 µM | 4.59 µM | 2.7 µM | 4.47 µM | 4.62 µM | 6.18 µM | 2.65 µM | 1.35 µM | 0.579 µM | 1.19 µM |
| O=C(O)c1c[nH]cc1C(=O)O | > 100 µM | > 100 µM | > 100 | > 100 | > 100 µM | > 100 | > 100 | > 100 µM | > 100 | > 100 |  |  |  |  |  |  |  |  |  |  |
| CN(C)c1ccc(C(N)=O)cn1 | > 100 µM | > 100 µM | > 100 | > 100 | > 100 µM | > 100 | > 100 | > 100 µM | > 100 | > 100 |  |  |  |  |  |  |  |  |  |  |
| CC[CH2][Pb]([CH2]CC)([CH2]CC)[NH]S(=O)(=O)c1ccc(C)cc1 | 0.678 µM | 0.272 µM | 0.117 |  | 0.36 µM | 0.242 | 0.143 | 0.131 µM | 0.279 | 0.23 | 0.0868 µM | 0.0643 µM | 0.035 µM |  | 0.0971 µM | 0.0667 µM | 0.0349 µM | 0.0259 µM | 0.0522 µM | 0.0371 µM |
